In ChEMBL document CHEMBL1125524, “Adenosine A1 antagonists. 2. Structure-activity relationships on diuretic activities and protective effects against acute renal failure” (J Med Chem, 1992):

Tests used:
[1] = test system: Rattus norvegicus; experiment: Ratio of urinary excretion value (Na+ concentration) in treated rats to that in control rats, at a peroral dose of 12.5 mg/Kg; assay type: functional, Urine
[2] = target: T1, Adenosine A2 receptor (Rattus norvegicus, UniProt P29276+P30543)
Description: Binding affinity towards adenosine A2 receptor in rat striatal membranes using N-[3H]-ethyladenosin-5''-uronamide as radioligand

[3] = test system: Rattus norvegicus; experiment: Ratio of urinary excretion value (urinary volume) in treated rats to that in control rats, at a peroral dose of 12.5 mg/Kg; assay type: functional, Urine
[4] = test system: Rattus norvegicus; experiment: Percent inhibition of serum creatinine by the compound given as ratio of Cr value in treated to vehicle treated ones after intraperitoneal administration of 10 mg/kg of compound to rats(vehicle 2.89+/-0.30); assay type: functional; details: ip
[5] = test system: Rattus norvegicus; experiment: Serum creatinine concentration measured after intraperitoneal administration of 10 mg/kg of compound to rats(vehicle 2.89+/-0.30); assay type: functional
[6] = target: T1, Adenosine A2 receptor; remark: listed apart in the source
[7] = test system: Rattus norvegicus; experiment: Ratio of sodium ion/potassium ion concentration in treated rats to that in control rats, at a peroral dose of 12.5 mg/Kg; assay type: functional
[8] = test system: Rattus norvegicus; experiment: Percent inhibition of Urea nitrogen by the compound given as ratio of UN value in treated to vehicle treated ones after intraperitoneal administration of 10 mg/kg of compound to rats(vehicle 93.6+/-8.6); assay type: functional; details: ip
[9] = test system: Rattus norvegicus; experiment: Effect on urinary excretion potassium and sodium after oral administration of 12.5 mg/kg to rats(potassium and sodium excretion in control rat is 0.175+/-0.014); assay type: functional, Urine
[10] = test system: Rattus norvegicus; experiment: Urea nitrogen concentration measured after intraperitoneal administration of 10 mg/kg of compound to rats(vehicle 93.6+/-8.6); assay type: functional
[11] = test system: Rattus norvegicus; experiment: Ratio of urinary excretion value (urinary volume) in treated rats to that in control rats, at a peroral dose of 6.25 mg/Kg; assay type: functional, Urine
[12] = test system: Rattus norvegicus; experiment: Oral diuretic activity was measured after oral administration of 12.5 mg/kg to rats(control volume is 0.94+/-0.03); assay type: functional, Urine
[13] = test system: Rattus norvegicus; experiment: Ratio of urinary excretion value (Na+ concentration) in treated rats to that in control rats, at a peroral dose of 6.25 mg/Kg; assay type: functional, Urine
[14] = test system: Rattus norvegicus; experiment: Ratio of urinary excretion value (Na+ concentration) in treated rats to that in control rats, at a peroral dose of 1.6 mg/Kg; assay type: functional, Urine
[15] = test system: Rattus norvegicus; experiment: Ratio of urinary excretion value (urinary volume) in treated rats to that in control rats, at a peroral dose of 1.6 mg/Kg; assay type: functional, Urine
[16] = test system: Rattus norvegicus; experiment: Urea nitrogen concentration measured after intraperitoneal administration of 10 mg/kg of compound to rats(vehicle 129.1+/-14.5); assay type: functional
[17] = test system: Rattus norvegicus; experiment: Percent inhibition of Urea nitrogen by the compound given as ratio of UN value in treated to vehicle treated ones after intraperitoneal administration of 10 mg/kg of compound to rats(vehicle 129.1+/-14.5); assay type: functional; details: ip
[18] = test system: Rattus norvegicus; experiment: Percent inhibition of serum creatinine by the compound given as ratio of Cr value in treated to vehicle treated ones after intraperitoneal administration of 1 mg/kg of compound to rats(vehicle 3.62+/-0.52); assay type: functional; details: ip
[19] = test system: Rattus norvegicus; experiment: Effect on urinary excretion potassium and sodium after oral administration of 1.6 mg/kg to rats(potassium and sodium excretion in control rat is 0.147+/-0.015); assay type: functional, Urine
[20] = test system: Rattus norvegicus; experiment: Ratio of urinary excretion value (Na+ concentration) in treated rats to that in control rats, at a peroral dose of 0.4 mg/Kg; assay type: functional, Urine
[21] = test system: Rattus norvegicus; experiment: Ratio of sodium ion/potassium ion concentration in treated rats to that in control rats, at a peroral dose of 1.6 mg/Kg; assay type: functional
[22] = test system: Rattus norvegicus; experiment: Percent inhibition of serum creatinine by the compound given as ratio of Cr value in treated to vehicle treated ones after intraperitoneal administration of 10 mg/kg of compound to rats(vehicle 3.93+/-0.45); assay type: functional; details: ip
[23] = test system: Rattus norvegicus; experiment: Oral diuretic activity was measured after oral administration of 1.6 mg/kg to rats(control volume is 0.96+/-0.09); assay type: functional, Urine
[24] = test system: Rattus norvegicus; experiment: Serum creatinine concentration measured after intraperitoneal administration of 10 mg/kg of compound to rats(vehicle 3.93+/-0.45); assay type: functional
[25] = test system: Rattus norvegicus; experiment: Serum creatinine concentration measured after intraperitoneal administration of 1 mg/kg of compound to rats(vehicle 3.62+/-0.52); assay type: functional
[26] = test system: Rattus norvegicus; experiment: Ratio of urinary excretion value (urinary volume) in treated rats to that in control rats, at a peroral dose of 0.4 mg/Kg; assay type: functional, Urine
[27] = test system: Rattus norvegicus; experiment: Effect on urinary excretion potassium and sodium after oral administration of 0.4 mg/kg to rats(potassium and sodium excretion in control rat is 0.191+/-0.020); assay type: functional, Urine
[28] = test system: Rattus norvegicus; experiment: Urea nitrogen concentration measured after intraperitoneal administration of 1 mg/kg of compound to rats(vehicle 105.2+/-14.9); assay type: functional
[29] = test system: Rattus norvegicus; experiment: Percent inhibition of Urea nitrogen by the compound given as ratio of UN value in treated to vehicle treated ones after intraperitoneal administration of 1 mg/kg of compound to rats(vehicle 105.2+/-14.9); assay type: functional; details: ip
[30] = test system: Rattus norvegicus; experiment: Oral diuretic activity was measured after oral administration of 0.4 mg/kg to rats(control volume is 1.15+/-0.17); assay type: functional, Urine
[31] = test system: Rattus norvegicus; experiment: Ratio of sodium ion/potassium ion concentration in treated rats to that in control rats, at a peroral dose of 0.4 mg/Kg; assay type: functional
[32] = test system: Rattus norvegicus; experiment: Percent inhibition of serum creatinine by the compound given as ratio of Cr value in treated to vehicle treated ones after intraperitoneal administration of 10 mg/kg of compound to rats(vehicle 4.98+/-0.08); assay type: functional; details: ip
[33] = test system: Rattus norvegicus; experiment: Oral diuretic activity was measured after oral administration of 25 mg/kg to rats(control volume is 0.89+/-0.06); assay type: functional, Urine
[34] = target: T2, Adenosine receptor A1 (Cavia porcellus, UniProt P47745)
T2 sequence (P47745 whole entry): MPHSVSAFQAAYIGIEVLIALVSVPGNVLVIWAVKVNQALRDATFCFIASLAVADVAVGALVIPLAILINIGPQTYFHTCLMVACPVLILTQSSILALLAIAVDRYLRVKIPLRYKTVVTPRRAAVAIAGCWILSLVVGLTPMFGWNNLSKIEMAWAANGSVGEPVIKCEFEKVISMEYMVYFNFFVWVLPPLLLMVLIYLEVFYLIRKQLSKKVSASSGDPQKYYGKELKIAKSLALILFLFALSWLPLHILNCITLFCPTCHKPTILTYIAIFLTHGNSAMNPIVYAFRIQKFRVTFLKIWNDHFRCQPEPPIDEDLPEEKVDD
Description: Binding affinity against adenosine A1 receptor in guinea pig forebrain membranes using N6-[3H]cyclohexyladenosine as radioligand

[35] = test system: Rattus norvegicus; experiment: Urea nitrogen concentration measured after intraperitoneal administration of 10 mg/kg of compound to rats(vehicle 150.7+/-3.4); assay type: functional
[36] = test system: Rattus norvegicus; experiment: Ratio of urinary excretion value (urinary volume) in treated rats to that in control rats, at a peroral dose of 25 mg/Kg; assay type: functional, Urine
[37] = test system: Rattus norvegicus; experiment: Effect on urinary excretion potassium and sodium after oral administration of 25 mg/kg to rats(potassium and sodium excretion in control rat is […]+/-[…]); assay type: functional, Urine
[38] = test system: Rattus norvegicus; experiment: Ratio of sodium ion/potassium ion concentration in treated rats to that in control rats, at a peroral dose of 25 mg/Kg; assay type: functional
[39] = test system: Rattus norvegicus; experiment: Ratio of urinary excretion value (Na+ concentration) in treated rats to that in control rats, at a peroral dose of 25 mg/Kg; assay type: functional, Urine
[40] = test system: Rattus norvegicus; experiment: Serum creatinine concentration measured after intraperitoneal administration of 10 mg/kg of compound to rats(vehicle 4.98+/-0.08); assay type: functional
[41] = test system: Rattus norvegicus; experiment: Percent inhibition of Urea nitrogen by the compound given as ratio of UN value in treated to vehicle treated ones after intraperitoneal administration of 10 mg/kg of compound to rats(vehicle 150.7+/-3.4); assay type: functional; details: ip

## CCCn1c(=O)c2nc(-c3ccc(S(=O)(=O)N(C)CCN(C)C)cc3)[nH]c2n(CCC)c1=O
[1]
  T/C: 1.78
[2]
  Ki: 15.5 nM
[3]
  T/C: 1.64
[4]
  inhibition in vivo at 10 mg/kg: 20%
[5]
  Cr: 2.31 mg/dL
[6]
  Ki: 26 nM
[7]
  Na+/K+: 1.56
[8]
  inhibition in vivo at 10 mg/kg: 33%
[9]
  Na: 0.21 m equiv 6hr-1 100g-1
[10]
  UN: 62.6 mg/dL
[11]
  T/C: 1.17
[12]
  Urine volume: 1.54 ml 6hr-1 100g-1
[13]
  T/C: 1.06

## CCCCn1c(=O)c2nc(C(C3CC3)C3CC3)[nH]c2n(CCCC)c1=O
[14]
  T/C: 1.91
[15]
  T/C: 1.66
[16]
  UN: 81.1 mg/dL
[17]
  inhibition in vivo at 10 mg/kg: 37%
[18]
  inhibition in vivo at 1 mg/kg: 0%
[19]
  Na: 0.282 m equiv 6hr-1 100g-1
[20]
  T/C: 1.44
[21]
  Na+/K+: 1.66
[22]
  inhibition in vivo at 10 mg/kg: 41%
[6]
  Ki: 440 nM
[23]
  Urine volume: 1.59 ml 6hr-1 100g-1
[24]
  Cr: 2.3 mg/dL
[25]
  Cr: 3.63 mg/dL
[26]
  T/C: 1.08
[27]
  Na: 0.276 m equiv 6hr-1 100g-1
[28]
  UN: 101.1 mg/dL
[29]
  inhibition in vivo at 1 mg/kg: 4%
[30]
  Urine volume: 1.24 ml 6hr-1 100g-1
[31]
  Na+/K+: 1.45

## CCCn1c(=O)c2c(nc(C(C3CC3)C3CC3)n2CC(=O)O)n(CCC)c1=O
[32]
  inhibition in vivo at 10 mg/kg: 4%
[33]
  Urine volume: 1.02 ml 6hr-1 100g-1
[34]
  Ki: 6900 nM
[35]
  UN: 145.5 mg/dL
[36]
  T/C: 1.15
[6]
  Ki: > 100000 nM
[37]
  Na: 0.185 m equiv 6hr-1 100g-1
[38]
  Na+/K+: 0.95
[39]
  T/C: 1.14
[40]
  Cr: 4.79 mg/dL
[41]
  inhibition in vivo at 10 mg/kg: 3%

## Nc1nc2ccc(Cl)cc2c2nc(-c3ccco3)nn12 [CGS-15943]
[2]
  Ki: 3.3 nM
[36]
  T/C: 1.02
[6]
  Ki: 0.73 nM
[38]
  Na+/K+: 1.07
[39]
  T/C: 1.46
